This is an account of results in patent publication US20140213513A1 (Sanofi, priority 2012, published 2014).

SMILES strings stand for the structures. *1 amine or outer side, *2 acyl side, *3 side chain or, on linkers, in order; H or OH if unused. Where a SMILES comes first, the peptide text is derived from it. Side-chain parts run from the residue outwards. [ ]: non-standard residue; d: D form. The star is where a group is joined. γGlu = O=C(O)[C@H](CCC(=O)[*:2])N[*:1]; Stearoyl = CCCCCCCCCCCCCCCCCC(=O)*; Palmitoyl = CCCCCCCCCCCCCCCC(=O)*; Aib = CC(C)(N)C(=O)O

Type in all cases: cell-based
Common to all, as to conditions: Table 7; cAMP formation

In assay [1] the target is T1, human GLP-1 receptor (hGLP-1 R) (Homo sapiens, UniProt P43220).
T1 construct: expressed in transfected cells
T1 sequence (P43220 24-463): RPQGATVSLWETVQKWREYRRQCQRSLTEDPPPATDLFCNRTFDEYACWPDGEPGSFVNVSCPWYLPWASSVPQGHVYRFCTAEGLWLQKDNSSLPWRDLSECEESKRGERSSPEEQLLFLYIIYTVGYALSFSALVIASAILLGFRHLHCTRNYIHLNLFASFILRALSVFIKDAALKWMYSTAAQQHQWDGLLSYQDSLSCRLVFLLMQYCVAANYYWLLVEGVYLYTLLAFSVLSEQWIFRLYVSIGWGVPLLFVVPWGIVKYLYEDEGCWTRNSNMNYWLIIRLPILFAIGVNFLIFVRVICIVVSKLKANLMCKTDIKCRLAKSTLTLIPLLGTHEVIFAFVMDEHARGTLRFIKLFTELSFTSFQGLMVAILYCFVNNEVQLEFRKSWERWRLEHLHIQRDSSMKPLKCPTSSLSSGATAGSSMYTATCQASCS
As to the kind of experiment: cAMP response of HEK-293 cells stably expressing human GLP-1 receptor (HTRF). The method, boiled down: (§1)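 HEK-293 cells stably expressing the receptor were resuspended at 400000 cells/ml in HBSS/20 mM HEPES/0.1% BSA buffer with 2 mM IBMX. Cells were stimulated with compound for 30 min at room temperature. Intracellular cAMP was measured by HTRF.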

For assay [2], the target named is T2, human GIP receptor (hGIP R) (Homo sapiens, UniProt P48546).
T2 construct: expressed in transfected cells
T2 sequence (P48546 22-466): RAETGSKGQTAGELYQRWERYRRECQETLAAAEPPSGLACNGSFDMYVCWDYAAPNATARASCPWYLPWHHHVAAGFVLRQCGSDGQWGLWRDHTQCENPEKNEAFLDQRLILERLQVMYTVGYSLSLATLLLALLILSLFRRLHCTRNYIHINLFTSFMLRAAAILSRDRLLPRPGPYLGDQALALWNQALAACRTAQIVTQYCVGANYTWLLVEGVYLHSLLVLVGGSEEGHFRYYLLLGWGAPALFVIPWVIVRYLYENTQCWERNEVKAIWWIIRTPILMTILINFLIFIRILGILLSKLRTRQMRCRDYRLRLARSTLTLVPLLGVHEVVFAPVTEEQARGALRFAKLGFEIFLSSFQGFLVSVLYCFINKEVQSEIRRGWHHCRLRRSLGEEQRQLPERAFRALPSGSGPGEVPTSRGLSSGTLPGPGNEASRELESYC
As to the kind of experiment: cAMP response of HEK-293 cells stably expressing human GIP receptor (HTRF). In short, it runs like this:
as §1

Assay [3] deals with T3, human glucagon receptor (hGLUC R) (Homo sapiens, UniProt P47871).
T3 construct: expressed in transfected cells
T3 sequence (P47871 26-477): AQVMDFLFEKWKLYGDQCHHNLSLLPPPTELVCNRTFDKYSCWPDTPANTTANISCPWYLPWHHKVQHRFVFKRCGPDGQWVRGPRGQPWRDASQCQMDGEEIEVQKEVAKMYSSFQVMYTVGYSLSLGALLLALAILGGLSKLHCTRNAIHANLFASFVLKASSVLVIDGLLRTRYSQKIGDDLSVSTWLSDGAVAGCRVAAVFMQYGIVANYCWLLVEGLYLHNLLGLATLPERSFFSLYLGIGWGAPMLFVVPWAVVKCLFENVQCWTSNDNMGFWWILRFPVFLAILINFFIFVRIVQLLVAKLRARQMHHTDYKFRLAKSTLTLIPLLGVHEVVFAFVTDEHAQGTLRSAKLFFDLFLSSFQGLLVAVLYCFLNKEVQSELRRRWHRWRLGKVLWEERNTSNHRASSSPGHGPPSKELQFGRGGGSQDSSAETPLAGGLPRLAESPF
As to the kind of experiment: cAMP response of HEK-293 cells stably expressing human glucagon receptor (HTRF). The method, boiled down: as §1

As for `CCCCCCCCCCCCCCCC(=O)N[C@@H](CCC(=O)NCCCC[C@H](NC(=O)[C@H](CCC(N)=O)NC(=O)[C@@H](NC(=O)[C@H](CO)NC(=O)[C@H](CC(C)C)NC(=O)[C@H](CC(=O)O)NC(=O)[C@H](CO)NC(=O)[C@@H](NC(=O)[C@H](Cc1ccccc1)NC(=O)[C@@H](NC(=O)CNC(=O)[C@H](CCC(N)=O)NC(=O)C(C)(C)NC(=O)[C@@H](N)Cc1ccc(O)cc1)[C@@H](C)O)[C@@H](C)O)[C@@H](C)CC)C(=O)N[C@@H](CC(=O)O)C(=O)N[C@@H](CO)C(=O)N[C@@H](CCCNC(=N)N)C(=O)N[C@@H](C)C(=O)N[C@@H](C)C(=O)N[C@@H](CCC(N)=O)C(=O)N[C@@H](CC(=O)O)C(=O)N[C@@H](Cc1ccccc1)C(=O)N[C@H](C(=O)N[C@@H](CCC(=O)O)C(=O)N[C@@H](Cc1c[nH]c2ccccc12)C(=O)N[C@@H](CC(C)C)C(=O)N[C@@H](CCCCN)C(=O)N[C@@H](CCCNC(=N)N)C(=O)NCC(=O)NCC(=O)N1CCC[C@H]1C(=O)N[C@@H](CO)C(=O)N[C@@H](CO)C(=O)NCC(=O)N[C@@H](C)C(=O)N1CCC[C@H]1C(=O)N1CCC[C@H]1C(=O)N1CCC[C@H]1C(=O)N[C@@H](CO)C(N)=O)[C@@H](C)CC)C(=O)O` [SEQ ID NO: 34, Y-Aib-Q-G-T-F-T-S-D-L-S-I-Q-K(yE-x53)-DSRAAQDFIEWLKRGGPSSGAPPPS-NH2] (H-Y[Aib]QGTFTSDLSIQK([γGlu-Palmitoyl])DSRAAQDFIEWLKRGGPSSGAPPPS-NH2), the figures for the concentration giving a half-maximal response (EC50) in assay [1], in assay [2] and in assay [3] were 0.0074 nM, 0.0513 nM and 0.222 nM, respectively.
In the same order, the values of `CCCCCCCCCCCCCCCC(=O)N[C@@H](CCC(=O)NCCCC[C@H](NC(=O)[C@H](CCC(N)=O)NC(=O)[C@@H](NC(=O)[C@H](CO)NC(=O)[C@H](CC(C)C)NC(=O)[C@H](CC(=O)O)NC(=O)[C@H](CO)NC(=O)[C@@H](NC(=O)[C@H](Cc1ccccc1)NC(=O)[C@@H](NC(=O)CNC(=O)[C@H](CCC(N)=O)NC(=O)C(C)(C)NC(=O)[C@@H](N)Cc1ccc(O)cc1)[C@@H](C)O)[C@@H](C)O)[C@@H](C)CC)C(=O)N[C@@H](CC(=O)O)C(=O)N[C@@H](CCC(=O)O)C(=O)N[C@@H](CCCNC(=N)N)C(=O)N[C@@H](C)C(=O)N[C@@H](C)C(=O)N[C@@H](CCCCN)C(=O)N[C@@H](CC(=O)O)C(=O)N[C@@H](Cc1ccccc1)C(=O)N[C@H](C(=O)N[C@@H](CCC(=O)O)C(=O)N[C@@H](Cc1c[nH]c2ccccc12)C(=O)N[C@@H](CC(C)C)C(=O)N[C@@H](CCCCN)C(=O)N[C@@H](C)C(=O)NCC(=O)NCC(=O)N1CCC[C@H]1C(=O)N[C@@H](CO)C(=O)N[C@@H](CO)C(=O)NCC(=O)N[C@@H](C)C(=O)N1CCC[C@H]1C(=O)N1CCC[C@H]1C(=O)N1CCC[C@H]1C(=O)N[C@@H](CO)C(N)=O)[C@@H](C)CC)C(=O)O` [SEQ ID NO: 35, Y-Aib-Q-G-T-F-T-S-D-L-S-I-Q-K(yE-x53)-DERAAKDFIEWLKAGGPSSGAPPPS-NH2] (H-Y[Aib]QGTFTSDLSIQK([γGlu-Palmitoyl])DERAAKDFIEWLKAGGPSSGAPPPS-NH2) are 0.0035 nM, 0.0182 nM and 0.123 nM.
On the same counts, the results for `CCCCCCCCCCCCCCCC(=O)N[C@@H](CCC(=O)NCCCC[C@H](NC(=O)[C@H](CCC(N)=O)NC(=O)[C@@H](NC(=O)[C@H](CO)NC(=O)[C@H](CC(C)C)NC(=O)[C@H](CC(=O)O)NC(=O)[C@H](CO)NC(=O)[C@@H](NC(=O)[C@H](Cc1ccccc1)NC(=O)[C@@H](NC(=O)CNC(=O)[C@H](CCC(N)=O)NC(=O)C(C)(C)NC(=O)[C@@H](N)Cc1ccc(O)cc1)[C@@H](C)O)[C@@H](C)O)[C@@H](C)CC)C(=O)N[C@@H](CCC(=O)O)C(=O)N[C@@H](CCCCN)C(=O)N[C@@H](CCCNC(=N)N)C(=O)N[C@@H](C)C(=O)N[C@@H](C)C(=O)N[C@@H](Cc1c[nH]cn1)C(=O)N[C@@H](CCC(=O)O)C(=O)N[C@@H](Cc1ccccc1)C(=O)N[C@H](C(=O)N[C@@H](CCC(=O)O)C(=O)N[C@@H](Cc1c[nH]c2ccccc12)C(=O)N[C@@H](CC(C)C)C(=O)N[C@@H](CCCCN)C(=O)N[C@@H](CC(N)=O)C(=O)N[C@H](C(=O)NCC(=O)N1CCC[C@H]1C(=O)N[C@@H](CO)C(=O)N[C@@H](CO)C(=O)NCC(=O)N[C@@H](C)C(=O)N1CCC[C@H]1C(=O)N1CCC[C@H]1C(=O)N1CCC[C@H]1C(=O)N[C@@H](CO)C(N)=O)[C@@H](C)O)[C@@H](C)CC)C(=O)O` [SEQ ID NO: 36, Y-Aib-Q-G-T-F-T-S-D-L-S-I-Q-K(yE-x53)-EKRAAHEFIEWLKNTGPSSGAPPPS-NH2] (H-Y[Aib]QGTFTSDLSIQK([γGlu-Palmitoyl])EKRAAHEFIEWLKNTGPSSGAPPPS-NH2) are 0.0052 nM, 0.0301 nM and 0.0395 nM.
On the same counts, the results for `CCCCCCCCCCCCCCCC(=O)N[C@@H](CCC(=O)NCCCC[C@H](NC(=O)[C@H](CCC(N)=O)NC(=O)[C@@H](NC(=O)[C@H](CO)NC(=O)[C@H](CC(C)C)NC(=O)[C@H](CC(=O)O)NC(=O)[C@H](CO)NC(=O)[C@@H](NC(=O)[C@H](Cc1ccccc1)NC(=O)[C@@H](NC(=O)CNC(=O)[C@H](CCC(=O)O)NC(=O)C(C)(C)NC(=O)[C@@H](N)Cc1ccc(O)cc1)[C@@H](C)O)[C@@H](C)O)[C@@H](C)CC)C(=O)N[C@@H](CCC(=O)O)C(=O)N[C@@H](CCC(=O)O)C(=O)N[C@@H](CCC(N)=O)C(=O)N[C@@H](C)C(=O)N[C@@H](C)C(=O)N[C@@H](Cc1c[nH]cn1)C(=O)N[C@@H](CCC(=O)O)C(=O)N[C@@H](Cc1ccccc1)C(=O)N[C@H](C(=O)N[C@@H](CCC(=O)O)C(=O)N[C@@H](Cc1c[nH]c2ccccc12)C(=O)N[C@@H](CC(C)C)C(=O)N[C@@H](CCCCN)C(=O)N[C@@H](CCCNC(=N)N)C(=O)NC(C)(C)C(=O)NCC(=O)N1CCC[C@H]1C(=O)N[C@@H](CO)C(=O)N[C@@H](CO)C(=O)NCC(=O)N[C@@H](C)C(=O)N1CCC[C@H]1C(=O)N1CCC[C@H]1C(=O)N1CCC[C@H]1C(=O)N[C@@H](CO)C(N)=O)[C@@H](C)CC)C(=O)O` [SEQ ID NO: 38, Y-Aib-E-G-T-F-T-S-D-L-S-I-Q-K(yE-x53)-E-E-Q-A-A-H-E-F-I-E-W-L-K-R-Aib-G-P-S-S-G-A-P-P-P-S-NH2] are 0.009 nM, 0.0074 nM and 22.5 nM.
Turning to `CCCCCCCCCCCCCCCC(=O)N[C@@H](CCC(=O)NCCCC[C@H](NC(=O)[C@H](CCC(N)=O)NC(=O)[C@H](CCCCN)NC(=O)[C@H](CO)NC(=O)[C@H](CC(C)C)NC(=O)[C@H](CC(=O)O)NC(=O)[C@H](CO)NC(=O)[C@@H](NC(=O)[C@H](Cc1ccccc1)NC(=O)[C@@H](NC(=O)CNC(=O)[C@H](CCC(N)=O)NC(=O)C(C)(C)NC(=O)[C@@H](N)Cc1ccc(O)cc1)[C@@H](C)O)[C@@H](C)O)C(=O)N[C@@H](CCC(=O)O)C(=O)N[C@@H](CO)C(=O)N[C@@H](CCCCN)C(=O)N[C@@H](C)C(=O)N[C@@H](C)C(=O)N[C@@H](CCC(N)=O)C(=O)N[C@@H](CC(=O)O)C(=O)N[C@@H](Cc1ccccc1)C(=O)N[C@H](C(=O)N[C@@H](CCC(=O)O)C(=O)N[C@@H](Cc1c[nH]c2ccccc12)C(=O)N[C@@H](CC(C)C)C(=O)N[C@@H](CCCCN)C(=O)N[C@@H](C)C(=O)NCC(=O)NCC(=O)N1CCC[C@H]1C(=O)N[C@@H](CO)C(=O)N[C@@H](CO)C(=O)NCC(=O)N[C@@H](C)C(=O)N1CCC[C@H]1C(=O)N1CCC[C@H]1C(=O)N1CCC[C@H]1C(=O)N[C@@H](CO)C(N)=O)[C@@H](C)CC)C(=O)O` [SEQ ID NO: 39, Y-Aib-Q-G-T-F-T-S-D-L-S-K-Q-K(yE-x53)-ESKAAQDFIEWLKAGGPSSGAPPPS-NH2] (H-Y[Aib]QGTFTSDLSKQK([γGlu-Palmitoyl])ESKAAQDFIEWLKAGGPSSGAPPPS-NH2), the EC50 in assay [1] was determined as 0.0045 nM; in assay [2] it was 0.0385 nM; in assay [3] it was 0.0192 nM.
On the same counts, the results for `CCCCCCCCCCCCCCCCCC(=O)N[C@@H](CCC(=O)NCCCC[C@H](NC(=O)[C@H](CCC(N)=O)NC(=O)[C@H](CCCCN)NC(=O)[C@H](CO)NC(=O)[C@H](CC(C)C)NC(=O)[C@H](CC(=O)O)NC(=O)[C@H](CO)NC(=O)[C@@H](NC(=O)[C@H](Cc1ccccc1)NC(=O)[C@@H](NC(=O)CNC(=O)[C@H](CCC(N)=O)NC(=O)C(C)(C)NC(=O)[C@@H](N)Cc1ccc(O)cc1)[C@@H](C)O)[C@@H](C)O)C(=O)N[C@@H](CC(=O)O)C(=O)N[C@@H](CO)C(=O)N[C@@H](CCCCN)C(=O)N[C@@H](C)C(=O)N[C@@H](C)C(=O)N[C@@H](CCC(N)=O)C(=O)N[C@@H](CC(=O)O)C(=O)N[C@@H](Cc1ccccc1)C(=O)N[C@H](C(=O)N[C@@H](CCC(=O)O)C(=O)N[C@@H](Cc1c[nH]c2ccccc12)C(=O)N[C@@H](CC(C)C)C(=O)N[C@@H](CCCCN)C(=O)N[C@@H](C)C(=O)NCC(=O)NCC(=O)N1CCC[C@H]1C(=O)N[C@@H](CO)C(=O)N[C@@H](CO)C(=O)NCC(=O)N[C@@H](C)C(=O)N1CCC[C@H]1C(=O)N1CCC[C@H]1C(=O)N1CCC[C@H]1C(=O)N[C@@H](CO)C(N)=O)[C@@H](C)CC)C(=O)O` [SEQ ID NO: 41, Y-Aib-Q-G-T-F-T-S-D-L-S-K-Q-K(yE-x70)-DSKAAQDFIEWLKAGGPSSGAPPPS-NH2] (H-Y[Aib]QGTFTSDLSKQK([γGlu-Stearoyl])DSKAAQDFIEWLKAGGPSSGAPPPS-NH2) are 0.0241 nM, 0.186 nM and 0.0265 nM.
